For one assay, the system named is calf brain tubulin. The assay can be described thus: In vitro tubulin polymerization. The note with it: interpolated concentration inducing an initial slope of 0.01 OD/minute; 1.0 mg/ml microtubule protein, 37°; read-out: Tubulin assay EC0.01. In kind it is biochemical. How it is done: In vitro Tubulin Polymerization
Twice cycled (2×) calf brain tubulin was prepared following the procedure of Williams and Lee (see Williams, R. C., Jr., and Lee, J. C. Preparation of tubulin from brain. Methods in Enzymology 85, Pt. D: 376-385, 1982) and stored in liquid nitrogen before use. Quantification of tubulin polymerization potency is accomplished following a modified procedure of Swindell, et al., (see Swindell, C. S., Krauss, N. E., Horwitz, S. B., and Ringel, L. Biologically active taxol analogues with deleted A-ring side chain substituents and variable C-2′ configurations. J. Med. Chem. 34: 1176-1184, 1991). These modifications, in part, result in the expression of tubulin polymerization potency as an effective concentration for any given compound. For this method, different concentrations of compound in polymerization buffer (0.1M MES, 1 mM EGTA, 0.5 mM MgCl2, pH 6.6) are added to tubulin in polymerization buffer at 37° in microcuvette wells of a Beckman (Beckman Instruments) Model DU 7400 UV spectrophotometer. A final microtubule protein concentration of 1.0 mg/ml and compound concentration of generally 2.5, 5.0, and 10 μM are used. Initial slopes of OD change measured every 10 seconds were calculated by the program accompanying the instrument after initial and final times of the linear region encompassing at least 3 time points were manually defined. Under these conditions linear variances were generally <10^−6, slopes ranged from 0.03 to 0.002 absorbance unit/minute, and maximum absorbance was 0.15 absorbance units. Effective concentration (EC0.01) is defined as the interpolated concentration capable of inducing an initial slope of 0.01 OD/minute rate and is calculated using the formula: EC0.01=concentration/slope. EC0.01 values are expressed as the mean with standard deviation obtained from 3 different concentrations. EC0.01 values for the compounds in this invention fall in the range 0.01-1000 μM.

The test system of assay [1] is HCT-116 human colon carcinoma cells. In words: Cytotoxicity (in vitro) by MTS assay. It counts as cell-based. The note with it: HCT-116, 72 hours incubation, MTS, read-out: HTC-116 assay IC50. Here is the method:
Cytoxicity was assessed in HCT-116 human colon carcinoma cells by MTS (3-(4,5-dimethylthiazol-2-yl)-5-(3-carboxymethoxyphenyl)-2-(4-sulphenyl)-2H-tetrazolium, inner salt) assay as reported in T. L. Riss, et. al., “Comparison of MTT, XTT, and a novel tetrazolium compound MTS for in vitro proliferation and chemosensitivity assays.,” Mol. Biol. Cell 3 (Suppl.): 184a, 1992. Cells were plated at 4,000 cell/well in 96 well microtiter plates and 24 hours later drugs were added and serial diluted. The cells were incubated at 37° form 72 hours at which time the tetrazolium dye, MTS at 333 μg/ml (final concentration), in combination with the electron coupling agent phenazine methosulfate at 25 μM (final concentration) was added. A dehydrogenase enzyme in live cells reduces the MTS to a form that absorbs light at […] which can be quantitated spectrophotometrically. The greater the absorbance the greater the number of live cells. The results are expressed as an IC50, which is the drug concentration required to inhibit cell proliferation (i.e. absorbance at 450 nm) to 50% of that of untreated control cells.

Molecules are shown by their SMILES.

The term IC50 denotes the midpoint of a concentration-inhibition curve.

For the compound `CC(=O)N1C2CC(/C(C)=C/c3csc(C)n3)OC(=O)C[C@H](O)C(C)(C)C(=O)[C@H](C)[C@@H](O)[C@@H](C)CCC[C@H]21` (relative stereo) [Example 21, [1S-[1R*,3R*(E),7R*,10S,11R*,12R*,16S*]]-17-Acetyl-7,11-dihydroxy-8,8,10,12-tetramethyl-3-[1-methyl-2-(2-methyl-4-thiazolyl)ethenyl]-4-oxa-17-azabicyclo[14.1.0]heptadecane-5,9-dione.], in the assay on calf brain tubulin, the EC50 was found to be 1200 nM. The IC50 in assay [1] was 0.9 nM.

In the case of `C/C(=C\c1csc(C)n1)C1CC2[C@@H](CCC[C@H](C)[C@H](O)[C@@H](C)C(=O)C(C)(C)[C@@H](O)CC(=O)O1)N2C(=O)c1ccccc1` (relative stereo) [Example 22, 1S-[1R*,3R*(E),7R*,10S,11R*,12R*,16S*]]-17-Phenylcarbonyl-7,11-dihydroxy-8,8,10,12-tetramethyl-3-[1-methyl-2-(2-methyl-4-thiazolyl)ethenyl]-4-oxa-17-azabicyclo[14.1.0]heptadecane-5,9-dione.], in the assay with calf brain tubulin, the EC50 is 1400 nM. Also, in assay [1], the half-inhibitory concentration (IC50) was determined as 3 nM.

As for `C/C(=C\c1csc(C)n1)C1CC2[C@@H](CCC[C@H](C)[C@H](O)[C@@H](C)C(=O)C(C)(C)[C@@H](O)CC(=O)O1)N2C(=O)c1cccs1` (relative stereo) [Example 23, [1S-[1R*,3R*(E),7R*,10S*,11R*,12R*,16S*]]-17-(2-Thienyl)carbonyl-7,11-dihydroxy-8,8,10,12-tetramethyl-3-[1-methyl-2-(2-methyl-4-thiazolyl)ethenyl]-4-oxa-17-azabicyclo[14.1.0]heptadecane-5,9-dione.], in the assay on calf brain tubulin, the EC50 was 1200 nM. The IC50 in assay [1] was 1.6 nM.

In the case of `CCOC(=O)N1C2CC(/C(C)=C/c3csc(C)n3)OC(=O)C[C@H](O)C(C)(C)C(=O)[C@H](C)[C@@H](O)[C@@H](C)CCC[C@H]21` (relative stereo) [Example 24], in the assay with calf brain tubulin, the EC50 is 1200 nM. For the same compound, in assay [1], the IC50 amounted to 7.7 nM.

(Values after patent publication US6800653B2, “Epothilone derivatives” (priority 2001, dated 2004).)
